How the values were obtained:
[1] = system: hUC-MSCs; assay: mGSH distribution in hUC-MSCs after RSL3 (MitoFreSH, flow cytometry and confocal imaging); type: cell-based, human
Description: After the cultured human umbilical cord-derived mesenchymal stem cells (hUC-MSCs) at passage 4, 7 or 15 were treated with various concentrations of RSL3 and stained with MitoFreSH, the distribution pattern of mitochondrial GSH (mGSH) in the cells was confirmed by histograms using flow cytometry and confocal imaging.
hUC-MSCs at passage 4, 7 or 15 were prepared, seeded at 70000 cells/well in a 6-well cell culture plate, and cultured at 37° C. for 24 hours. The medium used in the culture was prepared by adding 10% fetal bovine serum and 1× penicillin-streptomycin to α-MEM. […] The cells detached from the plate were transferred to an FACS tube and stored on ice, and a fluorescence level was measured using a flow cytometer.
hUC-MSCs at passage 4, 7 or 15 were prepared, seeded at 7000 cells/100 μl per well in a 96-well cell culture plate, and cultured at 37° C. for 24 hours. […] To remove MitoFreSH-Tracer from the medium before measurement, the medium was exchanged with fresh 10 mM HEPES-containing HBSS, and fluorescence images were measured using a confocal imaging system, Operetta.
A F510/F580 ratio referring to a GSH mean value in cells was calculated by measuring fluorescence values of F510 (fluorescence value when MitoFreSH-Tracer was bound with SH) and F580 (fluorescence value of MitoFreSH-Tracer, which was not bound with SH) in cells and dividing the F510 value by the F580 value. […]

[2] = system: hUC-MSCs; assay: CFU-F assay of hUC-MSCs; type: cell-based, human; conditions: ferrostatin-1 0.2, 1, 2 and 4 μM, liproxstatin-1 0.1, 0.5, 1 and 2 μM, 24 hours, n=3
Description: The inventors observed an effect of the material on stem cells by treating each stem cells with a material for enhancing a glutathione evaluation parameter. When hUC-MSCs were subcultured in a L-AA2G-containing medium, CFU-F, migration capacity, and an anti-inflammatory effect were observed. A CFU-F assay (n=3) was performed by treating hUC-MSCs with 125 or 250 μg/mL of AA2G for three days. As shown in FIGS. 16A and 16B, it was confirmed that, when AA2G was treated, CFU-F increased. In addition, as hUC-MSCs were treated with 125 or 250 μg/mL of AA2G for three days, PDGF-AA-induced migration capacity (n=3) was analyzed. As shown in FIGS. 17A and 17B, it was confirmed that the migration capacity was increased by AA2G treatment. In addition, the reduction in T cell proliferation, the reduction in T cell differentiation, and the promotion of Treg cell differentiation were observed by treating hUC-MSCs with 125 or 250 μg/mL of AA2G for three days. […] Meanwhile, hUC-MSCs were cultured with a glutathione precursor such as γ-glutamyl cysteine (GGC, 0.1, 0.25, and 0.5 mM). A CFU-F assay (n=3) was performed by treating hUC-MSCs with each concentration of GGC for 2 hours. […] In addition, SDF1α and PDGF-AA-induced migration capacities (n=3) were analyzed for hUC-MSCs without treatment with GGC, and SDF1α and PDGF-AA-induced migration abilities (n=3) were analyzed by treating hUC-MSCs with the increasing concentrations of GGC. STI571 was used as a PDGFR kinase inhibitor. As shown in FIGS. 20A to 20C, it was confirmed that, according to an increase in GGC treatment concentration, SDF1α- and PDGF-AA-induced migration capacities were enhanced. A CFU-F assay (n=3) was performed by treating hUC-MSCs with 0.2, 1, 2, and 4 μM ferrostatin-1 and 0.1, 0.5, 1, and 2 μM liproxstatin-1 for 24 hours.

[3] = system: T cells; assay: Anti-inflammatory effect of treated hUC-MSCs on T cells; type: cell-based
Description: The inventors observed an effect of the material on stem cells by treating each stem cells with a material for enhancing a glutathione evaluation parameter. When hUC-MSCs were subcultured in a L-AA2G-containing medium, CFU-F, migration capacity, and an anti-inflammatory effect were observed. A CFU-F assay (n=3) was performed by treating hUC-MSCs with 125 or 250 μg/mL of AA2G for three days. As shown in FIGS. 16A and 16B, it was confirmed that, when AA2G was treated, CFU-F increased. In addition, as hUC-MSCs were treated with 125 or 250 μg/mL of AA2G for three days, PDGF-AA-induced migration capacity (n=3) was analyzed. As shown in FIGS. 17A and 17B, it was confirmed that the migration capacity was increased by AA2G treatment. In addition, the reduction in T cell proliferation, the reduction in T cell differentiation, and the promotion of Treg cell differentiation were observed by treating hUC-MSCs with 125 or 250 μg/mL of AA2G for three days.
In addition, hUC-MSCs were cultured with ferrostatin-1 (0.2, 1, 2 and 4 μM) and liproxstatin-1 (0.1, 0.5, 1 and 2 μM), which control a glutathione level in cells by inhibiting lipid oxidation. […] Meanwhile, the hUC-MSCs were treated with 1 μM ferrostatin-1 for 24 hours, 0.2 mM GGC for 2 hours, and 2 mM GSH-EE for 2 hours. As a result, the reduction in T cell proliferation ability and the reduction in T cell differentiation capacity were observed, and promotion of Treg cell differentiation was observed.

[4] = system: human dermal fibroblasts; assay: mGSH level in human dermal fibroblasts after RSL3; type: cell-based; conditions: as the subculture continued; confocal imaging
Description: As described in the experiment for MSCs, human dermal fibroblasts subcultured several times were treated with RSL3 and the cells were stained with MitoFreSH-Tracer, and a ratio between cells maintaining mGSH and cells not maintaining mGSH was represented as a percentage through confocal imaging.

[5] = system: hUC-MSCs; assay: CD146 surface expression in mGSH High and mGSH Low hUC-MSCs after RSL3; type: cell-based, human; conditions: P4 hUC-MSC group in which mGSH level is lowered by RSL3, compared with mGSH level-maintaining group
Excerpt: To confirm whether the stem cell function of cells in which an mGSH level decreased is deteriorated under lipid oxidative stress caused by RSL3 treatment, an expression level of CD146, which is a cell surface protein known to be highly expressed in stem cells of high quality according to conventional literature, was confirmed through flow cytometry.
The cells were stained by the same method as a method of measuring a mitochondria GSH level through the flow cytometry described above, and detached from the plate using trypsin. The detached cells were treated with an antibody for flow cytometry with respect to CD146 to which a fluorescent material BUV395 was bound at 4° C. for 30 minutes, and washed with PBS. Using a flow cytometer, F510 and F580 fluorescence values for measuring a GSH level and a BUV395 fluorescence value for measuring CD146 expression were measured. Afterward, based on the point at which the histogram showing the F510/F580 distribution was divided into two peaks, the cells were divided into GSH^High cells (right peak) and GSH^Low cells (left peak) using FlowJo software, and a CD146-positive ratio of the corresponding cells is represented as a percentage (%).

[6] = hUC-MSCs treated with 1 μM ferrostatin-1 24 h, 0.2 mM GGC 2 h, 2 mM GSH-EE 2 h

Compound | effect of RSL3 on mGSH upon Ferrostatin-1 treatment ([1]; hUC-MSCs treated with RSL3) | CFU-F [2] | anti-inflammatory effect of the hUC-MSCs ([3]; ferrostatin-1 1 μM 24 h, GGC 0.2 mM 2 h, FIGS. 27, 28A to 28C) | T cell differentiation capacity [3, 6] | T cell proliferation ability [3, 6] | Treg cell differentiation [3, 6] | proportion of cells in which mGSH decreases by treatment with RSL3 [4] | lowering of CD146-positive ratio [5] | mGSH levels ([1]; hUC-MSCs at passage 4, 7 or 15, RSL3 0.1/0.5/1 μM, depending on RSL3 concentration and passage number)
CCOC(=O)c1ccc(NC2CCCCC2)c(N)c1 [ferrostatin-1] | disappeared | improved | did not alter | reduction | reduction | promotion |  |  | 
COC(=O)c1ccc([C@@H]2c3[nH]c4ccccc4c3C[C@@H](C(=O)OC)N2C(=O)CCl)cc1 [RSL3, 1S,3R-RAS-selective lethal 3] |  |  |  |  |  |  | increased | approximately 25% | reduced
